The source of these data is patent US6369114B1, “Administration of an α2-adrenergic receptor agonist to enhance cardiopulmonary resuscitation” (Institute of Critical Care Medicine, priority 1999, dated 2002).

The subject of data set [1] is post-resuscitation myocardial dysfunction, ventricular arrhythmias and survival. As to the kind of experiment: Ventricular fibrillation cardiac arrest with precordial compression and defibrillation in rats (Example 1). The format is in vivo, Sprague-Dawley rats. The following applies: for duration of post-resuscitation survival: VF untreated 8 min, drug after 2 min precordial compression, α-methylnorepinephrine 100 μg/kg, epinephrine 30 μg/kg, FIG. 4; for resuscitation outcome: defibrillation attempted 4 min after drug. The protocol:
Sprague-Dawley rats (450-570 g) were fasted overnight except for free access to water. The animals were anesthetized by intraperitoneal injection of 45 mg/kg pentobarbital sodium supplemented with additional doses of 10 mg/kg at hourly intervals, except that no pentobarbital was administered for 30 minutes before induction of cardiac arrest. The trachea was orally intubated with a 14-gauge cannula (Quick-Cath, Vicra division, Travenol Laboratory) mounted on a blunt needle with a 145° angled tip. For measurement of the partial pressure of carbon dioxide in the endotracheum (PETCO2), the respiratory gas was sampled through a side manifold interposed between the tracheal cannula and the respirator. The PCO2 was measured with a side-stream infrared CO2 analyzer (model 200, Instrumentation Laboratories). For measurement of left ventricular pressure, and both dP/dt40 (the rate of left ventricular pressure increase measured at a left ventricular pressure of 40 mm Hg, an indicator of isovolemic contractility) and negative dP/dt (the rate of left ventricular pressure decline, a measure of myocardial relaxation), a Teflon catheter (UTX 022; internal diameter, 0.6 mm; outer diameter, 0.97 mm; length 8 cm; Becton Dickinson) was advanced into the left ventricle from the right carotid artery. […] Guided by pressure monitoring, the catheter was slowly withdrawn into the right atrium. Right atrial pressure was measured with reference to the midchest with a high-sensitivity transducer (P-23-9b, Spectramed). This catheter was also used to sample blood from the right atrium. Through the right external jugular vein, a 3F pediatric radial artery catheter (model C-PUM-301J, Cook) was advanced into the right atrium. A precurved guide wire supplied with the catheter was then advanced through the catheter into the right ventricle until an endocardial ECG was observed. Through the right femoral artery, a Teflon catheter (UTX 022, Becton Dickinson) was advanced into the thoracic aorta for measurement of aortic pressure with a model TNF-R transducer (Abbott Critical Care). […] Rectal temperature was measured continuously with a rectal thermistor. Conventional lead II ECGs were recorded with skin electrodes (model E220, In-vivo Metric).
Ventricular fibrillation (VF) was induced and untreated for 8 minutes. Precordial compression (PC) was then initiated. After 2 minutes of precordial compression, animals were randomized to receive either the selective α2-adrenergic agent, α-methylnorepinephrine (100 μg/kg; catalog number M133, Research Biochemicals International; abbreviated “α-methylnorepi.”), epinephrine (30 μg/kg; abbreviated “epi.”) or saline placebo. Defibrillation (DF) was attempted 4 min. later. […] Baseline (BL) or control values are shown at the left of the figures.

The conditions of data set [2]: immediately following administration, under spontaneous circulation and during CPR; cited from earlier work.
Data set [3] relates to post-resuscitation left ventricular function and ventricular arrhythmias. As to the kind of experiment: Ventricular fibrillation cardiac arrest with precordial compression and defibrillation in pigs (Example 2). The data set is classed as in vivo, Male domestic pigs. The following applies: for resuscitation outcome: defibrillation attempted 4 min after drug. The protocol: Male domestic pigs weighing between 40 and 45 kg were fasted overnight except for free access to water. Anesthesia was initiated by intramuscular injection of ketamine (20 mg/kg) and completed by ear vein injection of sodium pentobarbital (30 mg/kg). Additional doses of sodium pentobarbital (8 mg/kg) were injected at intervals of 1 h to maintain anesthesia. A cuffed endotracheal tube was advanced into the trachea. Animals were mechanically ventilated with a volume-controlled ventilator (Model MA-1; Puritan-Bennett, Carlsbad, Calif.). End tidal PCO2 (PETCO2) was monitored with an infrared analyzer (Model 01R-7101A; Nihon Kohden Corp., Tokyo, Japan). Respiratory frequency was adjusted to maintain PETCO2 between 35 and 40 mm Hg.
For the measurement of left ventricular function, a 5-MHZ single plane with 5 MHZ continuous-wave Doppler transesophageal echocardiographic transducer with four-way flexure (Model 21363A; Hewlett-Packard Co., Medical Products Group, Andover Mass.) was advanced from the incisor teeth into the esophagus for a distance of approximately 35 cm. For the measurement of aortic pressure, a fluid-filled catheter was advanced from the left femoral artery into the thoracic aorta. For the measurement of right atrial pressure, pulmonary arterial pressures and blood temperature, a 7-F, pentalumen, thermodilation-tip catheter was advanced from the left femoral vein and flow directed into the pulmonary artery. For inducing ventricular fibrillation (VF), a 5-F pacing catheter (EP Technologies, Inc., Mountain View, Calif.) was advanced from the right cephalic vein into the right ventricle until an electrocardiographic current of injury was recorded.
Ventricular fibrillation (VF) was induced and untreated for 7 minutes. Precordial compression (PC) was then initiated. After 2 minutes of precordial compression, animals were randomized to receive either the selective α2-adrenergic agent, α-methylnorepinephrine (100 μg/kg; catalog number M133, Research Biochemicals International) or epinephrine (30 μg/kg). Defibrillation was attempted 4 min. later. […] A lower incidence of post-resuscitation ventricular arrhythmias was again observed with those animals receiving α-methylnorepinephrine.

For data set [4] the following is noted: compared with epinephrine; cited from earlier work.

Regarding `CNC[C@H](O)c1ccc(O)c(O)c1` [epinephrine], the “duration of post-resuscitation survival” value in data set [1] is 19 h. Moreover, the resuscitation outcome in data set [1] and in data set [3] was “successfully resuscitated” each time. Further, the “decrease of end tidal CO2 (ETCO2)” value in data set [2] is given as 50%.
As for `COc1ccc(OC)c(C(O)C(C)N)c1` (centres unmarked) [methoxamine], the “effectiveness for restoring spontaneous circulation” value in data set [4] is recorded as “as effective as epinephrine”.
On to `CNC[C@H](O)c1cccc(O)c1` [phenylephrine], for which the “effectiveness for restoring spontaneous circulation” value in data set [4] is listed as “as effective as epinephrine”.
Take `CC(N)[C@H](O)c1ccc(O)c(O)c1` (stereo partly drawn) [α-methylnorepinephrine, α-(1-aminoethyl),3,4-dihydroxybenzyl alcohol]: in data set [1] (100 μg/kg, vs epinephrine or saline placebo, FIG. 1), the “post-resuscitation myocardial dysfunction as measured by dp/dt40” value was “significantly less severe”. Also, the “post-resuscitation myocardial dysfunction as measured by negative dP/dt” value in data set [1] (100 μg/kg, vs epinephrine or saline placebo, FIG. 2) is “significantly less severe”. The “post-resuscitation myocardial dysfunction as measured by cardiac index (CI)” value in data set [1] (100 μg/kg, vs epinephrine or saline placebo, FIG. 3) was “significantly less severe”. The “duration of post-resuscitation survival” value in data set [1] came to 72 h. In addition, the resuscitation outcome in data set [1] and in data set [3] was “successfully resuscitated” throughout. Besides, the “incidence of post-resuscitation ventricular arrhythmias” value in data set [1] (α-methylnorepinephrine 100 μg/kg vs epinephrine 30 μg/kg or saline placebo) is on record as “significantly lower”; in data set [3] (VF untreated 7 min, α-methylnorepinephrine 100 μg/kg vs epinephrine 30 μg/kg), “lower”. For the same compound, the “post-resuscitation left ventricular stroke volume” value in data set [3] (100 μg/kg vs epinephrine 30 μg/kg, transesophageal echo-Doppler, FIG. 5) is “markedly improved”. Also, the post-resuscitation ejection fraction entry in data set [3] (100 μg/kg vs epinephrine 30 μg/kg, transesophageal echo-Doppler, FIG. 6) is recorded as “markedly improved”. Also, the post-resuscitation cardiac output result in data set [3] (100 μg/kg vs epinephrine 30 μg/kg, transesophageal echo-Doppler, FIG. 7) is reported as “markedly improved”.
